Experimental data from patent US8383581B2, “Short-chain peptides as parathyroid hormone (PTH) receptor agonist” (Cadila Healthcare Limited, priority 2009, dated 2013).
Where a SMILES comes first, the peptide text is derived from it. [ ]: non-standard residue; d: D form. ξ: configuration not given here. Arg(NO2) = N=C(NCCC[C@H](N)C(=O)O)N[N+](=O)[O-]; ξαMePhe(2,6-F2) = CC(N)(Cc1c(F)cccc1F)C(=O)O; ξαMePhe(2-F) = CC(N)(Cc1ccccc1F)C(=O)O; Nle = CCCC[C@H](N)C(=O)O; Ac5c = NC1(C(=O)O)CCCC1; Aib = CC(C)(N)C(=O)O

System: ovariectomised (OVX) rats
Experiment: In vivo anti-osteoporosis activity testing in OVX rat model (serum calcium, phosphate, bone parameters)
Parameters: species or system Female Wistar Rats
Settings: po
Summary of the method: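 Female Wistar rats aged 10–11 weeks were bilaterally ovariectomised and rested 4 weeks, then treated for 6 weeks with short-chain peptides, PTH standard or nothing (n=9). Fasting overnight urine and serum taken 24 h post-dose were assayed for calcium, phosphate, acid phosphatase and TRAP. Femur, tibia and L5 underwent histomorphometry.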

Compound | % decrease in serum PO4 Levels (mg/dl) vs control (1 mg/kg) | % increase in serum Ca^2+ Levels (mg/dl) vs control (1 mg/kg) | % decrease in serum PO4 Levels (mg/dl) vs control (0.03 mg/kg) | % increase in serum Ca^2+ Levels (mg/dl) vs control (0.03 mg/kg)
CCCC[C@H](NC(=O)C(C)(Cc1c(F)cccc1F)NC(=O)[C@H](CCC(N)=O)NC(=O)[C@@H](NC(=O)[C@H](CCC(=O)O)NC(=O)C(C)(C)NC(=O)[C@@H](NC(=O)C1(N)CCCC1)C(C)C)[C@@H](C)CC)C(=O)N[C@@H](Cc1c[nH]cn1)C(=O)N[C@@H](CCC(N)=O)C(=O)NC(C)(Cc1c(F)cccc1F)C(=O)N[C@@H](C)C(=O)NC(C)(Cc1c(F)cccc1F)C(=O)NC(C)(Cc1ccccc1F)C(N)=O (stereo partly shown) [Seq. ID. 511] (H-[Ac5c]V[Aib]EIQ[ξαMePhe(2,6-F2)][Nle]HQ[ξαMePhe(2,6-F2)]A[ξαMePhe(2,6-F2)][ξαMePhe(2-F)]-NH2) | 88% | 84% |  | 
CCCC[C@H](NC(=O)C(C)(Cc1c(F)cccc1F)NC(=O)[C@H](CCC(N)=O)NC(=O)[C@@H](NC(=O)[C@H](CCC(=O)O)NC(=O)C(C)(C)NC(=O)[C@@H](NC(=O)C1(N)CCCC1)C(C)C)[C@@H](C)CC)C(=O)N[C@@H](Cc1c[nH]cn1)C(=O)N[C@@H](CCC(N)=O)C(=O)NC(C)(C)C(=O)N[C@@H](C)C(=O)N[C@@H](CCCNC(=N)N[N+](=O)[O-])C(=O)NC(C)(Cc1c(F)cccc1F)C(N)=O (stereo partly shown) [Seq. ID. 599] (H-[Ac5c]V[Aib]EIQ[ξαMePhe(2,6-F2)][Nle]HQ[Aib]A[Arg(NO2)][ξαMePhe(2,6-F2)]-NH2) |  |  | 90% | 110%
